Reference: patent US8927559B2, “Quinazolinone-type compounds as CRTH2 antagonists” (Merck Sharp & Dohme Corp., priority 2010, dated 2015)
Several values for one entry are separate records, joined by “and”; a condition that tells them apart may be missing. Equal values may be shown once.

Biological target: T1, CRTH2 receptor (hCRTH2) (Homo sapiens, UniProt Q9Y5Y4)
T1 construct: expressed in transfected cells; host or cells: HEK cells (HEK-hCRTH2 cell line), membranes
T1 sequence (Q9Y5Y4 1-395): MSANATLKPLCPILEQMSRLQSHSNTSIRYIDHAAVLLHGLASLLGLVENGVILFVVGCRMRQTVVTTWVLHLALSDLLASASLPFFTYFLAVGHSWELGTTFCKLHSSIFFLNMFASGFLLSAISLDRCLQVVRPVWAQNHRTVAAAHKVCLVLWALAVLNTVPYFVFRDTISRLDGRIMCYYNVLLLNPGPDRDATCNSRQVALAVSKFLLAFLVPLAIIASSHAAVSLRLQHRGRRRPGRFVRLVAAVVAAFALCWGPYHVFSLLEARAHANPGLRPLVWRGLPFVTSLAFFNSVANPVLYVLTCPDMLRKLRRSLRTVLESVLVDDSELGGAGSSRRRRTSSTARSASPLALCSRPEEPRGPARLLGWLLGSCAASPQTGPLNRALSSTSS
Assay: Radioligand binding assay ([3H]PGD2 competition, membranes of HEK-hCRTH2 cell line)
Conditions: 3.0 nM [3H]PGD2, HEK-hCRTH2 membranes, 60 min, room temperature; read-out: Ki
Procedure: Competing ligands were diluted in dimethylsulfoxide (Me2SO) that was kept constant at 1% (v/v) of the final incubation volume. The reaction was initiated by the addition of 8-20 μg of membrane protein prepared from a HEK-hCRTH2 cell line. Total and non-specific binding were determined in the absence and the presence of […] PGD2, respectively. […] The reaction was routinely conducted for 60 min at room temperature and terminated by rapid filtration through prewetted (0.3% polyethyleneimine) 96-well printed filtermate (Wallac) using a Tomtec harvester. After washing with cold buffer, the filter was dried for 2 minutes in microwave, and Meltilex Scintillator sheet (Wallac) was melted on for 2 min.

SMILES: O=C(O)CCCCc1nc2cc(-c3c[nH]nn3)ccc2c(=O)n1-c1ccc(F)cc1 [Example 18, 5-[3-(4-fluorophenyl)-4-oxo-7-(1H-1,2,3-triazol-4-yl)-3,4-dihydroquinazolin-2-yl]pentanoic acid]
- Ki: 10 to 50 nM

SMILES: O=C(O)CCCCc1nc2cc(-c3cn(Cc4ccc(F)cc4)nn3)ccc2c(=O)n1-c1ccc(F)cc1 [Example 19, 5-{7-[1-(4-fluorobenzyl)-1H-1,2,3-triazol-4-yl]-3-(4-fluorophenyl)-4-oxo-3,4-dihydroquinazolin-2-yl}pentanoic acid]
- Ki: ≤ 10 nM

SMILES: CS(=O)(=O)c1ccc(Cn2cc(-c3ccc4c(=O)n(-c5ccc(F)cc5)c(CCCCC(=O)O)nc4c3)nn2)cc1 [Example 19D]
- Ki: ≤ 10 nM and 1.2 nM

SMILES: O=C(O)CCCCc1nc2cc(-c3cn(-c4cccnc4)nn3)ccc2c(=O)n1-c1ccc(F)cc1 [Example 20, 5-{3-(4-fluorophenyl)-4-oxo-7-[1-(pyridin-3-yl)-1H-1,2,3-triazol-4-yl]-3,4-dihydroquinazolin-2-yl}pentanoic acid]
- Ki: ≤ 10 nM

SMILES: O=C(O)CCCCc1nc2cc(-n3cc(C4CC4)nn3)ccc2c(=O)n1-c1ccc(F)cc1 [Example 21, 5-[7-(4-cyclopropyl-1H-1,2,3-triazol-1-yl)-3-(4-fluorophenyl)-4-oxo-3,4-dihydroquinazolin-2-yl]pentanoic acid]
- Ki: ≤ 10 nM

SMILES: CC(C)(O)c1cn(-c2ccc3c(=O)n(-c4ccc(F)cc4)c(CCCCC(=O)O)nc3c2)nn1 [Example 21C]
- Ki: 10 to 50 nM

SMILES: O=C(O)CCCCc1nc2cc(-n3cc(-c4ccccc4)nn3)ccc2c(=O)n1-c1ccc(F)cc1 [Example 21D]
- Ki: ≤ 10 nM

SMILES: O=C(O)CCCCc1nc2cc(-n3cc(Cc4ccccc4)nn3)ccc2c(=O)n1-c1ccc(F)cc1 [Example 21E]
- Ki: ≤ 10 nM

SMILES: O=C(O)CCCCc1nc2cc(-c3nc(Cc4ccc(F)cc4)no3)ccc2c(=O)n1-c1ccc(F)cc1 [Example 22C]
- Ki: 10 to 50 nM

SMILES: COc1ccccc1S(=O)(=O)NCc1cc(-c2ccc3c(=O)n(-c4ccc(F)cc4)c(CCCCC(=O)O)nc3c2)no1 [Example 24, 5-(3-(4-fluorophenyl)-7-(5-((2-methoxyphenylsulfonamido)methyl)isoxazol-3-yl)-4-oxo-3,4-dihydroquinazolin-2-yl)pentanoic acid]
- Ki: ≤ 10 nM

SMILES: O=C(O)CCCCc1nc2cc(-c3cc(CNC(=O)c4ccccc4)on3)ccc2c(=O)n1-c1ccc(F)cc1 [Example 24F]
- Ki: ≤ 10 nM

SMILES: Cc1ccc(S(=O)(=O)NCc2cc(-c3ccc4c(=O)n(-c5ccc(F)cc5)c(CCCCC(=O)O)nc4c3)no2)cc1 [Example 24G]
- Ki: ≤ 10 nM

SMILES: O=C(O)CCCCc1nc2cc(-c3cc(CNS(=O)(=O)c4ccc(F)cc4)on3)ccc2c(=O)n1-c1ccc(F)cc1 [Example 24H]
- Ki: ≤ 10 nM

SMILES: O=C(O)CCCCc1nc2cc(-c3cc(CNS(=O)(=O)Cc4ccccc4)on3)ccc2c(=O)n1-c1ccc(F)cc1 [Example 24J]
- Ki: ≤ 10 nM

SMILES: CC(C)(C)c1ccc(S(=O)(=O)NCc2cc(-c3ccc4c(=O)n(-c5ccc(F)cc5)c(CCCCC(=O)O)nc4c3)no2)cc1 [Example 24L]
- Ki: 10 to 50 nM

SMILES: O=C(O)CCCCc1nc2cc(-c3cc(CNS(=O)(=O)c4ccc(-c5ccccc5)cc4)on3)ccc2c(=O)n1-c1ccc(F)cc1 [Example 24M]
- Ki: 10 to 50 nM and 40.5 nM

SMILES: O=C(O)CCCCc1nc2cc(-c3cc(CNS(=O)(=O)c4cc(F)cc(F)c4)on3)ccc2c(=O)n1-c1ccc(F)cc1 [Example 24N]
- Ki: ≤ 10 nM

SMILES: O=C(O)CCCCc1nc2cc(-c3cc(CNS(=O)(=O)c4ccc(F)c(F)c4)on3)ccc2c(=O)n1-c1ccc(F)cc1 [Example 24P]
- Ki: ≤ 10 nM

SMILES: CC(C)(C)OC(=O)NCc1cc(-c2ccc3c(=O)n(-c4ccc(F)cc4)c(CCCCC(=O)O)nc3c2)no1 [Example 24Q]
- Ki: ≤ 10 nM

SMILES: O=C(O)CCCCc1nc2cc(-c3cc(CNC(=O)c4ccc(F)cc4)on3)ccc2c(=O)n1-c1ccc(F)cc1 [Example 24R]
- Ki: 10 to 50 nM

SMILES: O=C(O)CCCCc1nc2cc(-c3cc(CNS(=O)(=O)c4ccc(OC(F)(F)F)cc4)on3)ccc2c(=O)n1-c1ccc(F)cc1 [Example 24i]
- Ki: ≤ 10 nM

SMILES: O=C(O)CCCCc1nc2cc(-c3cc(CNS(=O)(=O)c4ccc(Cl)cc4)on3)ccc2c(=O)n1-c1ccc(F)cc1 [Example 24o]
- Ki: ≤ 10 nM

SMILES: O=C(O)CCCCc1nc2cc(-c3cc(Cc4ccc(F)cc4)on3)ccc2c(=O)n1-c1ccc(F)cc1 [Example 25, 5-(7-(5-(4-fluorobenzyl)isoxazol-3-yl)-3-(4-fluorophenyl)-4-oxo-3,4-dihydroquinazolin-2-yl)pentanoic acid]
- Ki: ≤ 10 nM and 1 nM

SMILES: O=C(O)CCCCc1nc2cc(-c3cc([C@H](O)c4ccc(F)cc4)on3)ccc2c(=O)n1-c1ccc(F)cc1 [Example 25C]
- Ki: ≤ 10 nM

SMILES: O=C(O)CCCCc1nc2cc(-c3cc([C@@H](O)c4ccc(F)cc4)on3)ccc2c(=O)n1-c1ccccc1 [Example 25D]
- Ki: ≤ 10 nM

SMILES: O=C(O)CCCCc1nc2cc(-c3cc([C@H](O)c4ccc(F)cc4)on3)ccc2c(=O)n1-c1ccccc1 [Example 25E]
- Ki: ≤ 10 nM

SMILES: O=C(O)CCCCc1nc2cc(-c3cc(Cc4ccc(F)cc4)on3)ccc2c(=O)n1-c1ccccc1 [Example 25F]
- Ki: ≤ 10 nM

SMILES: O=C(O)CCCCc1nc2cc(-c3cc(C(O)c4ccc5ccccc5n4)on3)ccc2c(=O)n1-c1ccc(F)cc1 (centres unmarked) [Example 25G]
- Ki: ≤ 10 nM

SMILES: O=C(O)CCCCc1nc2cc(-c3cc(C(O)c4ccc5ccccc5n4)on3)ccc2c(=O)n1-c1ccc(F)cc1 (centres unmarked) [Example 25H]
- Ki: 10 to 50 nM

SMILES: O=C(O)CCCCc1nc2cc(-c3cc(Cc4ccc5ccccc5c4)on3)ccc2c(=O)n1-c1ccc(F)cc1 [Example 25J]
- Ki: ≤ 10 nM

SMILES: O=C(O)CCCCc1nc2cc(-c3cc(Cc4cnc5ccccc5n4)on3)ccc2c(=O)n1-c1ccc(F)cc1 [Example 25L]
- Ki: ≤ 10 nM

SMILES: O=C(O)CCCCc1nc2cc(-c3cc(C(O)c4ccc5ccccc5c4)on3)ccc2c(=O)n1-c1ccc(F)cc1 (centres unmarked) [Example 25i]
- Ki: ≤ 10 nM

SMILES: C[C@@]1(Cc2ccccc2)CC(c2ccc3c(=O)n(-c4ccc(F)cc4)c(CCCCC(=O)O)nc3c2)=NO1 [Example 26, (R)-5-(7-(5-benzyl-5-methyl-4,5-dihydroisoxazol-3-yl)-3-(4-fluorophenyl)-4-oxo-3,4-dihydroquinazolin-2-yl)pentanoic acid]
- Ki: ≤ 10 nM and 7.4 nM

SMILES: C[C@@]1([C@@H](O)c2ccccc2)CC(c2ccc3c(=O)n(-c4ccc(F)cc4)c(CCCCC(=O)O)nc3c2)=NO1 [Example 26C]
- Ki: 10 to 50 nM

SMILES: C[C@]1([C@@H](O)c2ccccc2)CC(c2ccc3c(=O)n(-c4ccc(F)cc4)c(CCCCC(=O)O)nc3c2)=NO1 [Example 26D]
- Ki: 10 to 50 nM

SMILES: C[C@]1(Cc2ccccc2)CC(c2ccc3c(=O)n(-c4ccc(F)cc4)c(CCCCC(=O)O)nc3c2)=NO1 [Example 26E]
- Ki: ≤ 10 nM

SMILES: C[C@@]1([C@H](O)c2ccccc2)CC(c2ccc3c(=O)n(-c4ccc(F)cc4)c(CCCCC(=O)O)nc3c2)=NO1 [Example 26F]
- Ki: ≤ 10 nM

SMILES: C[C@]1([C@H](O)c2ccccc2)CC(c2ccc3c(=O)n(-c4ccc(F)cc4)c(CCCCC(=O)O)nc3c2)=NO1 [Example 26G]
- Ki: 10 to 50 nM

SMILES: C[C@@]1([C@H](O)c2ccccc2)CC(c2ccc3c(=O)n(-c4ccccc4)c(CCCCC(=O)O)nc3c2)=NO1 [Example 26J]
- Ki: ≤ 10 nM

SMILES: C[C@]1([C@H](O)c2ccccc2)CC(c2ccc3c(=O)n(-c4ccccc4)c(CCCCC(=O)O)nc3c2)=NO1 [Example 26K]
- Ki: 10 to 50 nM

SMILES: C[C@]1(Cc2ccccc2)CC(c2ccc3c(=O)n(-c4ccccc4)c(CCCCC(=O)O)nc3c2)=NO1 [Example 26L]
- Ki: 10 to 50 nM
